Experimental data as given in the supplement of paper PMC10307832.

Assays:
Experiment in all cases: relative viability (nuclei count vs DMSO), 5 days (fraction); higher = more cells survive
[1] = compound: CN1CCN(c2ccc3nc(-c4c(N)c5c(F)cccc5[nH]c4=O)[nH]c3c2)CC1 [Dovitinib] + CS(=O)(=O)N1CCN(Cc2cc3nc(-c4cccc5[nH]ncc45)nc(N4CCOCC4)c3s2)CC1 [Pictilisib] (partner 1 µM)
Procedure, shortened: (§1)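 Lung cancer cell lines were pin-tool dosed in 1536-well plates on the day after seeding, with either a lone drug or a fixed anchor-drug dose plus five library-drug doses (not always all listed) in √10 steps. Nuclei were counted on 4× images after 5 days. Relative viability is the ratio of treated-well to vehicle-well nuclei counts, with each value a median of duplicate plates.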

[2] = compound: CN1CCN(c2ccc3nc(-c4c(N)c5c(F)cccc5[nH]c4=O)[nH]c3c2)CC1 [Dovitinib] + CC(C)C[C@H](NC(=O)[C@H](Cc1ccccc1)NC(=O)c1cnccn1)B(O)O [Bortezomib] (partner 0.002 µM)
Procedure, shortened: as §1

[3] = compound: CN1CCN(c2ccc3nc(-c4c(N)c5c(F)cccc5[nH]c4=O)[nH]c3c2)CC1 [Dovitinib] + CC(=O)c1c(C)c2cnc(Nc3ccc(N4CCNCC4)cn3)nc2n(C2CCCC2)c1=O [Palbociclib] (partner 0.5 µM)
Procedure, shortened: as §1

[4] = compound: CN1CCN(c2ccc3nc(-c4c(N)c5c(F)cccc5[nH]c4=O)[nH]c3c2)CC1 [Dovitinib] + COc1cc2c(Oc3ccc(NC(=O)C4(C(=O)Nc5ccc(F)cc5)CC4)cc3F)ccnc2cc1OCCCN1CCOCC1 [Foretinib] (partner 0.25 µM)
Procedure, shortened: as §1

Row | Cell Line | relative viability ([1]; first compound 0.02 µM) | relative viability ([1]; first compound 0.06325 µM) | relative viability ([1]; first compound 0.6325 µM) | relative viability ([1]; first compound 2 µM) | relative viability ([2]; first compound 0.02 µM) | relative viability ([2]; first compound 0.06325 µM) | relative viability ([2]; first compound 0.6325 µM) | relative viability ([2]; first compound 2 µM) | relative viability ([3]; first compound 0.02 µM) | relative viability ([3]; first compound 0.06325 µM) | relative viability ([3]; first compound 0.2 µM) | relative viability ([3]; first compound 0.6325 µM) | relative viability ([3]; first compound 2 µM) | relative viability ([4]; first compound 0.02 µM) | relative viability ([4]; first compound 0.06325 µM) | relative viability ([4]; first compound 0.2 µM) | relative viability ([4]; first compound 0.6325 µM) | relative viability ([4]; first compound 2 µM) | relative viability ([1]; first compound 0.2 µM) | relative viability ([2]; first compound 0.2 µM)
1 | 201T | 0.725 | 0.692 | 0.702 | 0.658 | 1.05 | 1.04 | 1.1 | 1.09 | 0.366 | 0.379 | 0.341 | 0.371 | 0.367 | 0.946 | 1.01 | 1.07 | 1.09 | 1.06 |  | 
2 | A-427 | 0.724 | 0.625 | 0.585 | 0.774 | 0.87 | 0.909 | 0.93 | 1.03 | 0.502 | 0.517 | 0.553 | 0.521 | 0.587 | 1.17 | 0.996 | 1.02 | 1.07 | 0.956 | 0.573 | 0.953
3 | ABC-1 | 0.697 | 0.664 | 0.872 | 0.78 | 0.262 | 0.34 | 0.323 | 0.315 | 0.513 | 0.797 | 0.833 | 0.627 | 0.725 | 0.899 | 1.05 | 1.2 | 1.11 | 1.42 | 0.826 | 0.306
4 | BEN | 0.565 | 0.548 | 0.661 | 0.493 | 0.705 | 0.991 | 1.12 | 0.679 | 0.477 | 0.46 | 0.456 | 0.478 | 0.492 | 0.52 | 0.566 | 0.68 | 0.698 | 0.614 | 0.553 | 0.948
5 | CAL-12T | 0.664 | 0.3 | 0.528 | 0.722 | 1.28 | 1 | 0.977 | 1.05 | 0.563 | 0.55 | 0.406 | 0.526 | 0.589 | 0.986 | 1.12 | 1.07 | 1.1 | 1.12 | 0.295 | 1.1
6 | COR-L23 | 0.733 | 0.75 | 0.838 | 0.904 | 0.82 | 1.03 | 1.16 | 1.16 | 0.269 | 0.261 | 0.306 | 0.372 | 0.324 | 0.93 | 1 | 0.99 | 0.952 | 1.04 | 0.813 | 1.06
7 | COR-L 105 | 0.362 | 0.356 | 0.439 | 0.529 | 0.779 | 0.666 | 0.84 | 0.965 | 0.434 | 0.421 | 0.46 | 0.419 | 0.427 | 0.921 | 0.993 | 1.2 | 1.14 | 1.31 | 0.365 | 0.86
8 | Calu-6 | 0.931 | 0.885 | 0.893 | 1 | 1.05 | 0.992 | 0.993 | 0.98 |  |  |  |  |  | 0.925 | 0.861 | 0.853 | 0.874 | 0.912 | 0.913 | 1
9 | ChaGo-K-1 | 0.653 | 0.654 | 0.883 | 0.972 | 1.1 | 1.01 | 1.04 | 1.03 | 0.927 | 0.936 | 0.866 | 0.912 | 0.881 | 0.848 | 0.888 | 0.906 | 0.892 | 0.909 | 0.829 | 0.952
10 | EKVX | 0.451 | 0.366 | 0.506 | 0.463 | 1.08 | 1.08 | 1.06 | 1.08 | 0.394 | 0.378 | 0.511 | 0.412 | 0.364 | 0.633 | 0.721 | 0.64 | 0.757 | 0.808 | 0.462 | 1.22
11 | EMC-BAC-2 | 0.515 | 0.516 | 0.512 | 0.56 | 1.05 | 0.995 | 1.05 | 1.04 | 0.551 | 0.493 | 0.539 | 0.502 | 0.518 | 1 | 0.982 | 0.991 | 0.948 | 0.599 | 0.497 | 1.08
12 | EPLC-272H | 0.35 | 0.277 | 0.383 | 0.353 | 0.917 | 0.949 | 0.875 | 0.905 | 0.314 | 0.331 | 0.314 | 0.336 | 0.328 | 0.634 | 0.841 | 0.732 | 0.747 | 0.687 | 0.311 | 0.883
13 | H3255 | 0.539 | 0.514 | 0.516 | 0.514 | 0.773 | 0.642 | 0.739 | 0.788 | 0.301 | 0.291 | 0.298 | 0.325 | 0.281 | 0.877 | 0.864 | 0.904 | 0.982 | 0.966 | 0.498 | 0.804
14 | HARA | 0.372 | 0.259 | 0.398 | 0.417 | 1.26 | 1.16 | 1.17 | 1.2 | 0.29 | 0.234 | 0.311 | 0.254 | 0.258 | 0.969 | 0.765 | 0.846 | 0.873 | 0.905 | 0.367 | 1.01
15 | HCC-15 | 0.827 | 0.742 | 0.82 | 0.722 | 1.03 | 1.07 | 1.05 | 1.02 | 0.738 | 0.708 | 0.717 | 0.694 | 0.708 | 1.03 | 0.971 | 1 | 1.06 | 1.03 | 0.767 | 1.02
16 | HCC-44 | 0.516 | 0.594 | 0.62 | 0.591 | 0.822 | 0.836 | 0.894 | 0.916 | 0.93 | 0.994 | 0.969 | 0.985 | 0.95 |  |  |  |  |  | 0.642 | 0.867
17 | HCC-78 | 0.206 |  | 0.272 | 0.213 | 0.636 | 0.486 | 0.567 | 0.355 | 0.437 | 0.468 | 0.511 | 0.54 | 0.522 | 0.632 | 0.528 | 0.535 | 0.599 | 0.623 | 0.24 | 0.531
